Results from PMC4379580 (Viruses, 2015).

Assays:
[1] = target: T1, WT-His-P9-1 (Southern rice black-streaked dwarf virus, UniProt B2LHU4); experiment: intrinsic fluorescence quenching titration; type: binding; settings: 298 K, pH 7.4, 20 μM protein, excitation 275 nm, Hill equation
T1 construct: protein encoded by first ORF of segment S9 (P9)

[2] = target: TR-ΔN6-His-P9-1 (Southern rice black-streaked dwarf virus, UniProt B2LHU4); settings: 298 K, 20 μM protein, excitation 275 nm, Hill equation
[3] = target: WT-His-P9-1 (Southern rice black-streaked dwarf virus, UniProt B2LHU4, S138T); experiment: biochemical
[4] = target: TR-ΔC23-His-P9-1 (Southern rice black-streaked dwarf virus, UniProt B2LHU4); settings: 298 K, 20 μM protein, excitation 275 nm, Hill equation

Structure (SMILES): CCOP(=O)(OCC)C(Nc1nc2c(C)cccc2s1)c1ccccc1F (stereo not shown) [DFL, dufulin]
- Binding parameters / KA (M^-1) [1]: 1 × 10^5.061
- Binding parameters / KA (M^-1) [2]: 1 × 10^6.421
- Kd [3]: 9.73 µM
- Binding parameters / KA (M^-1) [4]: 1 × 10^4.470
